Results as given in US9579319B2 (Redx Pharma PLC, priority 2013, dated 2017).
≈ marks a conversion by molar mass, not a printed value. Like-named read-outs stand apart in the source and are kept apart here.

Legend:
[1] = Thermodynamic solubility with filtration; assay type: physicochemical; details: aqueous buffer, thermodynamic from solid, pH 7.4 phosphate buffer (0.1 M), room temperature, filtered
Experimental: Thermodynamic Solubility with Filtration
0.5 mg is weighed into a Mini Uniprep filter vial (Whatman, PVDF, 0.2 μm). 0.5 mL of pH 7.4 phosphate buffer (0.1 M) is dispensed and the vial is shaken at 600 rpm for 24 h at room temperature. At the end of this period, the solution is then filtered and an aliquot of the filtrate is used to create a tenfold dilution. Standards are prepared by serially diluting a 1250 μg/mL DMSO stock solution of the compound to 125 and 2.5 μg/mL, in Acetonitrile/Water (50:50, v/v). The concentration of the filtrate and tenfold dilution is measured by detection against the two calibration standards.

[2] = test system: Hedgehog signalling pathway; assay: Gli-reporter NIH3T3 luciferase assay (Hedgehog pathway inhibition); assay type: cell-based; details: NIH3T3, Gli-reporter NIH-3T3 cells, recombinant mouse sonic hedgehog, 24 hours, luminescence
How it was run: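 Mouse NIH3T3 cells with Gli-responsive luciferase reporter, pre-treated 1 h with compound (top final concentration 1 μM, 0.1% DMSO) in 0.5% calf serum medium. Then stimulated with recombinant mouse sonic hedgehog for 24 h at 37° C. Luminescence read-out (OneGLO), triplicates; IC50 reported.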

Compound	solubility at 24 h [1] [µg/mL]	IC50 ([2]; read-out: Gli luc IC50) [nM]	IC50 ([2]; read-out: Gli Luc nM (IC50)) [nM]
Cc1nc(CN(C)C2CCN(c3nnc(-c4ccnn4C)c4ccccc34)CC2)c(C(F)(F)F)o1 [Example 98, N-methyl-1-[4-(2-methylpyrazol-3-yl)phthalazin-1-yl]-N-[[2-methyl-5-(trifluoromethyl)oxazol-4-yl]methyl]piperidin-4-amine]	106 (≈ 218 µM)	10 to 200	–
CN(C(=O)Nc1ccc(F)cc1C(F)(F)F)C1CCN(c2nnc(-c3ccnn3C)c3ccncc23)CC1 [Example 112, 3-[4-fluoro-2-(trifluoromethyl)phenyl]-1-methyl-1-[1-[1-(2-methylpyrazol-3-yl)pyrido[3,4-d]pyridazin-4-yl]-4-piperidyl]urea]	399 (≈ 755 µM)	< 10	1.26
Cn1nccc1-c1nnc(N2CCC(NCc3cnccc3C(F)(F)F)CC2)c2ccccc12 [Example 156, 1-[4-(2-methylpyrazol-3-yl)phthalazin-1-yl]-N-[[4-(trifluoromethyl)-3-pyridyl]methyl]piperidin-4-amine]	321 (≈ 687 µM)	< 10	–
Cc1ccccc1CNC1CCN(c2nnc(-c3ccnn3C)c3ccccc23)CC1 [Example 170, 1-[4-(2-methylpyrazol-3-yl)phthalazin-1-yl]-N-(o-tolylmethyl)piperidin-4-amine]	1190 (≈ 2890 µM)	10 to 200	–
COc1cc(-c2nnc(N3CCC(NS(=O)(=O)c4ccc(F)cc4C(F)(F)F)CC3)c(C)c2C)ccn1 [Example 172, 4-fluoro-N-[1-[6-(2-methoxy-4-pyridyl)-4,5-dimethyl-pyridazin-3-yl]-4-piperidyl]-2-(trifluoromethyl)benzenesulfonamide]	–	> 1000	–

The next lines start with the values.

solubility at 24 h [1] [µg/mL]	IC50 ([2]; read-out: Gli luc IC50) [nM]	IC50 ([2]; read-out: Gli Luc nM (IC50)) [nM]	Compound
1010 (≈ 2180 µM)	10 to 200	–	Cc1nc(CN(C)C2CCN(c3nnc(-c4ccnn4C)c(C)c3C)CC2)c(C(F)(F)F)o1 [Example 97, 1-[4,5-dimethyl-6-(2-methylpyrazol-3-yl)pyridazin-3-yl]-N-methyl-N-[[2-methyl-5-(trifluoromethyl)oxazol-4-yl]methyl]piperidin-4-amine]
1260 (≈ 3270 µM)	10 to 200	–	Cc1c(-c2ccnn2C)nnc(N2CCC(NC(=O)NC(C)(C)C)CC2)c1C [Example 116, 1-tert-butyl-3-[1-[4,5-dimethyl-6-(2-methylpyrazol-3-yl)pyridazin-3-yl]-4-piperidyl]urea]
–	> 1000	–	Cc1c(-c2ccnn2C)nnc(N2CCC(N(C)Cc3ccncn3)CC2)c1C [Example 171, 1-[4,5-dimethyl-6-(2-methylpyrazol-3-yl)pyridazin-3-yl]-N-methyl-N-(pyrimidin-4-ylmethyl)piperidin-4-amine]
